Assay results reported in US9975861B2, “Dual inhibitor compounds for use in the treatment of neurodegenerative disorders and alzheimer's disease” (FONDAZIONE ISTITUTO ITALIANO DI TECNOLOGIA, priority 2014, dated 2018).

Legend:
[1] = system: inducible nitric oxide synthase (iNOS); assay: Western blot analysis of iNOS (M1 marker) in LPS-stimulated glial cells; assay type: cell-based; details: LPS 100 ng/mL, 24 hours co-treatment, 0, 5, 10 and 20 μM; dose-dependent; primary rat glial cells (FIGS. 5a, b)
Method: (§1) Mixed glial cell cultures were prepared from cerebral cortex of newborn Wistar rats (Rattus norvegicus), as previously described [Monti, B.; D'Alessandro, C.; Farini, V.; Bolognesi, A.; Polazzi, E.; Contestabile, A.; Stirpe, F.; Battelli, M. G. In vitro and in vivo toxicity of type 2 ribosome-inactivating proteins lanceolin and stenodactylin on glial and neuronal cells. Neurotoxicology 2007, 28, 637-644]. Briefly, brain tissue was cleaned from meninges, trypsinized for 15 minutes at 37° C. and, after mechanical dissociation, the cell suspension was washed and plated on poly-L-lysine (Sigma-Aldrich, St. Louis, Mo., USA, 10 μg/mL) coated flasks (75 cm^2). Mixed glial cells were cultured for 10-13 days in Basal Medium Eagle (BME, Life technologies Ltd, Paisley, UK) supplemented with 100 mL/L heat-inactivated FBS (Life technologies), 2 mmol/L glutamine (Sigma-Aldrich) and 100 μmol/L gentamicin sulfate (Sigma-Aldrich).
Microglial cells were harvested from mixed glial cell cultures by mechanical shaking, resuspended in fresh medium without serum and plated on uncoated 35 mm Ø dishes at a density of 1.5×10^6 cells/1.5 mL medium/well for western blot analysis or on 96 wells at 1×10^5 cells/0.2 mL medium/well for MTT assay. Cells were allowed to adhere for 30 minutes and then washed to remove non-adhering cells. […]

glial and neuronal cells = assay: MTT assay, viability of brain cells in primary cultures; assay type: cell-based, rat; details: 0, 10, 20 and 50 μM for 24 hours; up to 50 μM; microglia, astrocytes, cerebellar granular neurons (FIGS. 4a-4c)
Method: as §1, with “(Sigma-Aldrich). […]” for “(Sigma-Aldrich).”
Neurotoxicology 2007, 28, 637-44]. […] Following a 20 minutes incubation for CGNs and 2 hours for glial cells at 37° C. in the dark, the MTT precipitate was dissolved in 0.1 M Tris-HCl buffer containing 5% Triton X-100 (all from Sigma-Aldrich) and absorbance was read at 570 nm in a multiplate spectophotometric reader (Bio-Rad).

SMILES | LPS-induced iNOS induction [1] | toxicity in glial and neuronal cells (MTT viability) (glial and neuronal cells)
CCNC1=NC(c2ccc(F)cc2)NC(=O)N1 (racemic) [Example 3, 6-(ethylamino)-4-(4-fluorophenyl)-3,4-dihydro-1,3,5-triazin-2(1H)-one] | reduced | did not display any toxicity
CCCNC1=NC(c2ccc(F)cc2)NC(=O)N1 (stereo not shown) [Example 6, 4-(4-fluorophenyl)-6-(propylamino)-3,4-dihydro-1,3,5-triazin-2(1H)-one] | reduced | did not display any toxicity
